# What was measured:
# Format in all cases: cell-based, Chinese hamster
# [1] = test system: CT60 cells; experiment: Filipin binding assay, LSO compartment ratio (dose dependence, time course)
# Description: Although the intensity assay was potentially useful, it seemed that additional information in the images could provide better discrimination of wild type vs. NPC cells. For this purpose, we took advantage of the spatial distribution of the filipin labeling of the LSOs, which cluster near the nucleus (FIG. 1B). We applied the second, higher threshold for this bright cluster. We then measured the total fluorescence intensity in the selected LSO objects (high threshold, FIG. 2C) divided by the total number of pixels in cells (low threshold, FIG. 2D).
# Image analysis: Images of filipin-stained cells were analyzed using Metamorph Discovery-1 image analysis software. Two different image analysis assays were developed: (1) Average filipin intensity assay and (2) LSO compartment ratio assay. First, to correct for shading an image was created by averaging all of the images from a plate and smoothing the averaged image using a low pass filter. Then each pixel in an image was multiplied by the average intensity of the shading image, and the resulting pixel intensities were divided by the shading image on a pixel-by-pixel basis. Background was subtracted from each shading-corrected image by determining the 5th percentile intensity value of the image and subtracting this value from each pixel in the image. At the plating density used, all fields had at least 5% of the imaged areas that was cell-free. Next, two different thresholds were applied to the filipin images. For the first, a low threshold was set to include all areas occupied by cells. […] A second, higher threshold was set for brightly stained regions in CT60 and/or CT43 cells by selecting bright areas of filipin staining, with the intention of mainly identifying the LSOs in the perinuclear region of the cells. For the Average filipin intensity assay, using the low threshold alone, we measured total filipin intensity above the low threshold divided by the number of pixels above the lower threshold for each field. This gave an average filipin intensity per cell area. For the LSO compartment ratio we measured the total filipin intensity selectively in the region above the higher threshold divided by the number of pixels in the lower threshold. This gave a measure of the total intensity of LSO filipin per cell area.
# Dose Dependence: Using the same methods as for the screening, compounds were tested at 10 μM, 3.33 μM, 1.11 μM, 370 nM and 123 nM in four wells each. Batches of selected compounds were purchased from Chemical Diversity, and 10 mM stocks in DMSO were made. A secondary stock plate of 2× concentration (20 μM, 6.66 μM, 2.22 μM, 740 nM and 246 nM) of compounds was prepared in screening medium S. To obtain the final concentrations, […] of this secondary stock was added to the cells in each well containing 30 μl of growth medium A supplemented with 10% FBS. The final DMSO concentration (0.2% v/v) was the same in all wells. Cells were plated at 650 cells per well in 30 μl of growth medium A supplemented with 10% FBS in Costar 384 well plates. After 20 h of incubation in the presence of the compounds, cells were washed with PBS, fixed with PFA and stained with filipin as described for the screening assay. Dose dependence determination of the initial 14 hit compounds from the primary library was done at least 5 times in CT60 cells and 3 times in CT43 cells in separate experiments. Dose dependence determination of the 7 hit compounds from the secondary library was carried out at least 3 times in CT60 cells and 2 times in CT43 cells in separate experiments.
# The effects of the compounds were determined at 1.11, 3.33 and 10 μM concentrations after 4, 20 and 48 h using methods similar to the dose dependence. The CT60 cells were seeded in three 384 well plates at 600 cells/well in growth medium on day 1. To maintain the same density of cells at the final time point, compounds were added chronologically. […]
# [2] = test system: CT60 cells; experiment: Gas chromatography cholesterol assay
# Procedure: The cholesterol lowering effect of the 14 hit compounds identified by filipin labeling was measured by an alternative chemical method that involved GC separation of solvent-extracted cellular lipids (43). CT60 cells were treated with compounds at 10 μM under the same conditions as in the screening assays. Since the GC assay estimates FC content per cell, the values are compared to the average filipin intensity assay (Table 1).
# CT60 or CT43 cells were plated on day 1 in 6-well plates. Hit compounds were added to the cells at 10 μM concentration. Cells were incubated for 24 h. Cellular lipids were extracted with hexane: iso-propyl alcohol (3:2 v/v). The lipid extracts were dried and re-suspended in hexane followed by separation on gas chromatograph using β-sitosterol as an internal standard.
# Procedure: CT60 cells were plated in 6-well plates in Ham's F-12/1.176 g/L sodium bicarbonate/2 g/L glucose/10% FBS. Following 24 h incubation, cells were treated with 10 μM of each compounds, medium being replaced with Ham's F-12/1.176 g/L sodium bicarbonate/2 g/L glucose/5.5% FBS/20 mM HEPES. The change of the medium in the wells was performed to have experimental conditions similar to those used for the screening once chemical compounds were added to the cells. After 18 h treatment with compounds, cells were washed twice with Hank's balanced salt solutions (HBSS). Cellular lipids were extracted with hexane/isopropyl alcohol (3:2 v/v) (43) dried and resuspended in hexane followed by separation on a gas chromatograph (GC) using following conditions. A Hewlett Packard GC model HP 5890 series II (Palo Alto, Calif.) equipped with a flame ionization detector, split-splitless injector, and 15 m×0.53 mm HP-5 capillary column coated with […] film thickness of 5% phenyl methyl siloxane was used to separate free cholesterol. The injection temperature was maintained at 255° C. and oven temperature was held isothermally at 260° C. using helium as a mobile phase at 30 mL/min flow rate. The free cholesterol (FC) was quantified using beta-sitosterol as internal standard to correct for lipid losses during extraction.
# [3] = test system: 25RA CHO cells; experiment: 3H cholesterol efflux assay on 25RA CHO cells; details: 10 μM, overnight chase
# Procedure: 25RA CHO cells were incubated with 10 μM concentrations of compound 2-a-1, 2-a-3,2-a-8, 2-a-9, and 2-a-13. Cells were loaded with ^3H cholesterol and then chased overnight in the presence or absence of the various compounds. The media over the cells were removed, and radioactivity released from the cells was measured. The cells were then solubilized, and radioactivity remaining in the cells was measured. […] The 25-RA cells do have a defect in SCAP, which alters cholesterol homeostasis, including increased synthesis of cholesterol.
SMILES,shape of dose-response curve ([1]; 123 nM to 10 μM),"μg FC/μg Protein by GC Fraction of control ([2]; 10 μM, FC = free cholesterol)","decrease in the LSO compartment ratio after 4 hr treatment ([1]; 4 hr, 1.1, 3.3 and 10 μM tested)",Lowest Effective Dose (LSO Assay) (−3 SD @ 20 h) [1],μg FC/μg Protein (GC) @ 10 μM dose Fraction of Control [2],efflux of cholesterol [3],effect below solvent control at 123 nM [1]
CCOc1cccc2cc(-c3csc(Nc4cccc(C(F)(F)F)c4)n3)c(=O)oc12 [Compound 1-a-14],unusual dose-response curve,1.44 ± 0.16 Fraction of control,–,–,–,–,–
CCN(CC)c1ccc(C=C2SC(=S)N(c3ccc(OC)cc3)C2=O)cc1 [Compound 2-a-3],–,–,more than 3 SD,3.33 µM,0.81 ± 0.03 Fraction of Control,promote efflux of cholesterol,–
COc1ccccc1Nc1nc(Nc2ccccc2OC)nc(Nc2ccccc2OC)n1 [Compound 2-a-9],–,–,–,370 µM,0.75 ± 0.04 Fraction of Control,promote efflux of cholesterol,2 SD
FC(F)(F)COc1nc(NN=Cc2cccc(I)c2)nc(N(c2ccccc2)c2ccccc2)n1 [Compound 2-a-12],–,–,–,370 µM,–,–,2 SD
O=[N+]([O-])c1cccc(C=NNc2nc(Nc3cccc4ccccc34)nc(N(c3ccccc3)c3ccccc3)n2)c1 [Compound 2-a-13],–,–,–,370 µM,0.79 ± 0.04 Fraction of Control,promote efflux of cholesterol,–
C=CCN1C(=O)C(=Cc2cc(C)n(-c3ccccc3)c2C)C(C(=O)OC)=C1C [Compound 2-a-15],–,–,–,3.33 µM,0.89 ± 0.03 Fraction of Control,–,–

# — patent US20090012148A1, “REDUCING CELLULAR CHOLESTEROL LEVELS AND/OR TREATING OR PREVENTING PHOSPHOLIPIDOSIS” (priority 2005, published 2009)
